From ChEMBL document CHEMBL1955743, “Potent inhibitors of LpxC for the treatment of Gram-negative infections” (J Med Chem, 2012)
≈ marks a conversion by molar mass, not a printed value. Each block holds one compound with its values, some of them ahead of it.

Tests used:
[1] = AUC in rat at 10 mg/kg, iv; type: ADME, organism-based; parameters: dose 10 mg/kg, route intravenous; conditions: plasma
[2] = Clearance in rat at 10 mg/kg, iv; type: ADME, organism-based; parameters: dose 10 mg/kg, route intravenous; conditions: in vivo
Pseudomonas aeruginosa [3] = experiment: Antibacterial activity against Pseudomonas aeruginosa PAO1 after 16 to 20 hrs by broth microdilution method; type: functional
[4] = Half life in rat at 10 mg/kg, iv; type: ADME, organism-based; parameters: dose 10 mg/kg, route intravenous; conditions: in vivo
[5] = Volume of distribution at steady state in rat at 10 mg/kg, iv; type: ADME, organism-based; parameters: dose 10 mg/kg, route intravenous; conditions: in vivo, read-out: Vdss
[6] = target: T1, UDP-3-O-acyl-N-acetylglucosamine deacetylase (Pseudomonas aeruginosa (strain ATCC 15692 / PAO1 / 1C / PRS 101 / LMG12228), UniProt P47205); experiment: Inhibition of Pseudomonas aeruginosa LpxC using UDP-3-O-(R-hydroxydecanoyl)-N-acetylglucosamine incubated for 30 mins prior to substrate addition measured after 60 mins by mass spectrophotometry
T1 sequence (P47205 whole entry): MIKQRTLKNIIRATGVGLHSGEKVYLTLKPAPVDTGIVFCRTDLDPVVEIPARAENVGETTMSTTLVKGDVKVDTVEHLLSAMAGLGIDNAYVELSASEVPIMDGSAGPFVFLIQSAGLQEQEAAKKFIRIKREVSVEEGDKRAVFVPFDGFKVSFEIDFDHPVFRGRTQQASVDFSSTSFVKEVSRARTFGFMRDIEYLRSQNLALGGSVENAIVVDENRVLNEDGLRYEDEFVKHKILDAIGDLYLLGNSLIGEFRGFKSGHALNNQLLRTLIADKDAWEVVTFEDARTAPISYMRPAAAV

Staphylococcus aureus = experiment: Antibacterial activity against Staphylococcus aureus ATCC 29213 after 16 to 20 hrs by broth microdilution method; type: functional
Pseudomonas aeruginosa [7] = experiment: Antibacterial activity against Pseudomonas aeruginosa clinical isolates after 16 to 20 hrs by broth microdilution method; type: functional
Klebsiella pneumoniae = experiment: Antibacterial activity against Klebsiella pneumoniae after 16 to 20 hrs by broth microdilution method; type: functional
Citrobacter freundii = experiment: Antibacterial activity against Citrobacter freundii after 16 to 20 hrs by broth microdilution method; type: functional
Pseudomonas aeruginosa [8] = experiment: Antibacterial activity against Pseudomonas aeruginosa after 16 to 20 hrs by broth microdilution method; type: functional
Acinetobacter baumannii = experiment: Antibacterial activity against Acinetobacter baumannii after 16 to 20 hrs by broth microdilution method; type: functional
Klebsiella aerogenes = experiment: Antibacterial activity against Enterobacter aerogenes after 16 to 20 hrs by broth microdilution method; type: functional
Escherichia coli = experiment: Antibacterial activity against Escherichia coli after 16 to 20 hrs by broth microdilution method; type: functional
Stromelysin-1 = Stromelysin-1 (Homo sapiens, UniProt P08254); experiment: Inhibition of human MMP3
Collagenase 3 = Collagenase 3 (Homo sapiens, UniProt P45452); experiment: Inhibition of human MMP13
Neutrophil collagenase = Neutrophil collagenase (Homo sapiens, UniProt P22894); experiment: Inhibition of human MMP8
Pseudomonas aeruginosa [9] = experiment: Antibacterial activity against mexAB-OprM,mexXY,MexZ-deficient Pseudomonas aeruginosa PAO280 by broth microdilution technique; type: functional
Stromelysin-2 = Stromelysin-2 (Homo sapiens, UniProt P09238); experiment: Inhibition of human MMP10
[10] = target: Matrix metalloproteinase-24 (Homo sapiens, UniProt Q9Y5R2); experiment: Inhibition of human MMP24
[11] = target: Matrix metalloproteinase-25 (Homo sapiens, UniProt Q9NPA2); experiment: Inhibition of human MMP25
[12] = target: Macrophage metalloelastase (Homo sapiens, UniProt P39900); experiment: Inhibition of human MMP12
[13] = target: Matrix metalloproteinase-9 (Homo sapiens, UniProt P14780); experiment: Inhibition of human MMP9
[14] = target: Matrix metalloproteinase-26 (Homo sapiens, UniProt Q9NRE1); experiment: Inhibition of human MMP26
[15] = Fraction unbound in human plasma; type: ADME, cell-free
Pseudomonas aeruginosa [16] = experiment: Antibacterial activity against penicillin-resistant,quinolone-sensitive Pseudomonas aeruginosa UC12120 clinical isolate infected in mouse assessed as log reduction in bacterial burden in spleen administered 0.5 and 4 hrs post-infection measured after 24 hrs; type: functional
Pseudomonas aeruginosa [17] = experiment: Antibacterial activity against penicillin-resistant,quinolone-sensitive Pseudomonas aeruginosa UC12120 clinical isolate infected in sc dosed mouse assessed as host survival administered 0.5 and 4 hrs post-infection measured after 96 hrs; type: functional; conditions: read-out: PD50
Interstitial collagenase = Interstitial collagenase (Homo sapiens, UniProt P03956); experiment: Inhibition of human MMP1
[18] = target: Matrix metalloproteinase-14 (Homo sapiens, UniProt P50281); experiment: Inhibition of human MMP14
[19] = target: Matrix metalloproteinase-16 (Homo sapiens, UniProt P51512); experiment: Inhibition of human MMP16
[20] = target: T2, Sodium-dependent noradrenaline transporter (Homo sapiens, UniProt P23975); experiment: Inhibition of human norepinephrine transporter
Matrilysin = Matrilysin (Homo sapiens, UniProt P09237); experiment: Inhibition of human MMP7
Pseudomonas aeruginosa [21] = experiment: Antibacterial activity against penicillin-resistant,quinolone-sensitive Pseudomonas aeruginosa UC12120 clinical isolate infected in sc dosed mouse administered 0.5 and 4 hrs post-infection measured after 24 hrs; type: functional
[22] = target: T2, Sodium-dependent noradrenaline transporter; conditions: 10 uM
[23] = target: Disintegrin and metalloproteinase domain-containing protein 17 (Homo sapiens, UniProt P78536); experiment: Inhibition of human TACE
[24] = Inhibition of PDE11
[25] = target: Matrix metalloproteinase-20 (Homo sapiens, UniProt O60882); experiment: Inhibition of human MMP20
[26] = target: Matrix metalloproteinase-15 (Homo sapiens, UniProt P51511); experiment: Inhibition of human MMP15

T2 sequence (P23975 whole entry): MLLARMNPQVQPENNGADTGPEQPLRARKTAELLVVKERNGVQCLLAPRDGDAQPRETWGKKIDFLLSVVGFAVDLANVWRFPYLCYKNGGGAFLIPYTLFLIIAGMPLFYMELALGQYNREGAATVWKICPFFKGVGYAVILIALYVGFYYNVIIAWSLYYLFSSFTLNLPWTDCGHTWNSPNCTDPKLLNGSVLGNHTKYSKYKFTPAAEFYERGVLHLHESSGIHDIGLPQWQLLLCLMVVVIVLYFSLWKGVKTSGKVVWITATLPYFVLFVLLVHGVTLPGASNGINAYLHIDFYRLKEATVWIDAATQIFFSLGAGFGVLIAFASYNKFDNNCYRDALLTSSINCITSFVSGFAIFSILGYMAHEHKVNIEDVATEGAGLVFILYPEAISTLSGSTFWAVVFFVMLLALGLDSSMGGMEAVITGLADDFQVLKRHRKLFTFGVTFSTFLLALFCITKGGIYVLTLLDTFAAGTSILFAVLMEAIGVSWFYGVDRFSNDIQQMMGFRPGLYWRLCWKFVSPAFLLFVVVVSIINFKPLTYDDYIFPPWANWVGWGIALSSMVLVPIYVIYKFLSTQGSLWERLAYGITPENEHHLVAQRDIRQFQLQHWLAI
Stromelysin-1, sequence (P08254 whole entry): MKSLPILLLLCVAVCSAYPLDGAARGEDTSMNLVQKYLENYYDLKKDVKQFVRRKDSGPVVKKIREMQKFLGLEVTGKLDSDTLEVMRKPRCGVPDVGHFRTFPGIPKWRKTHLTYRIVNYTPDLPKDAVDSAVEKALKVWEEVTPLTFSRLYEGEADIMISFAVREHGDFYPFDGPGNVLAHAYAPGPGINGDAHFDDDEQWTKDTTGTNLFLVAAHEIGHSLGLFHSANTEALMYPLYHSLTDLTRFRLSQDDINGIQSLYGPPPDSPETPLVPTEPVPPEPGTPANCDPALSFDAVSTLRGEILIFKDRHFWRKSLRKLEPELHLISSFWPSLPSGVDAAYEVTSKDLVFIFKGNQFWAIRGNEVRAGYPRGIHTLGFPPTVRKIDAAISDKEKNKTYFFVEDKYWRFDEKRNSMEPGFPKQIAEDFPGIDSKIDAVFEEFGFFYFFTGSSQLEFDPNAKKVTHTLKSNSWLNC
Disintegrin and metalloproteinase domain-containing protein 17, sequence (P78536 whole entry, the tested form may be a part): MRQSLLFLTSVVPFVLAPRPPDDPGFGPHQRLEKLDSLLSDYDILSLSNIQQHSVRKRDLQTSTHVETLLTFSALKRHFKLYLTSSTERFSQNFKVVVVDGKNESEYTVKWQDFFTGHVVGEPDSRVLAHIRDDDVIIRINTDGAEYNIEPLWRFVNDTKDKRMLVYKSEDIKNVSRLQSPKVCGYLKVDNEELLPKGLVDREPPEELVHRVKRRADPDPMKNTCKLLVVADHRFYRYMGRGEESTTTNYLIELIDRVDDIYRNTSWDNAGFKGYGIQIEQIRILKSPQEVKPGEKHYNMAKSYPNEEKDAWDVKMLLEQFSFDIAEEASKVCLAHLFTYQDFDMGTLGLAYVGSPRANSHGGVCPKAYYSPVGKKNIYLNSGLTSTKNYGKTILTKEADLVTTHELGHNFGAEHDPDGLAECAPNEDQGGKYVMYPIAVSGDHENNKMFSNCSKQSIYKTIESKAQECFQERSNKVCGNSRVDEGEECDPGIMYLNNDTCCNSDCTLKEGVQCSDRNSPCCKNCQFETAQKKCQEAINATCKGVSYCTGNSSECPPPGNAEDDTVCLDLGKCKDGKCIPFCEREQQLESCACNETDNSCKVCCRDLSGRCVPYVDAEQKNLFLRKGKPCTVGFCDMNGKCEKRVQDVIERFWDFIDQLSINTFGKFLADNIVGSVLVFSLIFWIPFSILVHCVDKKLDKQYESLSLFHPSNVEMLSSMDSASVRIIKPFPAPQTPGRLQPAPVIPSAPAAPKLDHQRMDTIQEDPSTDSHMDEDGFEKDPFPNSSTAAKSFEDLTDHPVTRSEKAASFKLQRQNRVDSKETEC
Matrix metalloproteinase-24, sequence (Q9Y5R2 whole entry): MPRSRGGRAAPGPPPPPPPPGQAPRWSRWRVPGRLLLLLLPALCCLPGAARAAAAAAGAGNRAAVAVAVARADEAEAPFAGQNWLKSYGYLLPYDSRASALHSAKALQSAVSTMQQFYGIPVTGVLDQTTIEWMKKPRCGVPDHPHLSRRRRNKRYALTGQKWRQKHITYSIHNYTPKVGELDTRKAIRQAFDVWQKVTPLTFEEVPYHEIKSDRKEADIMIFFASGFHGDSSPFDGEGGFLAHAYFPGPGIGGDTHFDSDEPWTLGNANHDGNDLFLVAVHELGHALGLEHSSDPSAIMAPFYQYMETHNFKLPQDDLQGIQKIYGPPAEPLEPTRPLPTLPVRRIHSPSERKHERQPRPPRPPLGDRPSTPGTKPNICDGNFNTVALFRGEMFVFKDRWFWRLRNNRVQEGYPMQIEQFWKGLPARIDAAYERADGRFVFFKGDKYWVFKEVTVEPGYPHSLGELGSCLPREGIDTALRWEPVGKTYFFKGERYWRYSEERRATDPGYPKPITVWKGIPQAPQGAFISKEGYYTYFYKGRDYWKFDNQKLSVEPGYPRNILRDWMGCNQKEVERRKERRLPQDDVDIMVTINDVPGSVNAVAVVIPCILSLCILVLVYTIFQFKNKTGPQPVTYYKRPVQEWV
Stromelysin-2, sequence (P09238 whole entry): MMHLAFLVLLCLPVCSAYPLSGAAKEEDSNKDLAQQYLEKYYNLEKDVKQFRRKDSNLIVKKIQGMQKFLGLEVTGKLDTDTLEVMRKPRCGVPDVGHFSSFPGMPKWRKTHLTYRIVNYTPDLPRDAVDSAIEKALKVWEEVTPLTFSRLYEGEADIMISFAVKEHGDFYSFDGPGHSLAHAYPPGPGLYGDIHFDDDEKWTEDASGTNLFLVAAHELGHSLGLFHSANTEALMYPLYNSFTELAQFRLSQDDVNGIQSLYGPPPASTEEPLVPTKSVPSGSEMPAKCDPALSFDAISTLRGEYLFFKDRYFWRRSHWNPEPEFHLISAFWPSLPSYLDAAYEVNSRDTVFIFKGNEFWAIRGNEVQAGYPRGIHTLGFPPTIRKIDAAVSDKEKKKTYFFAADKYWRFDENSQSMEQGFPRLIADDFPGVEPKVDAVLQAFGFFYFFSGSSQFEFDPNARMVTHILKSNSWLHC
Matrilysin, sequence (P09237 whole entry): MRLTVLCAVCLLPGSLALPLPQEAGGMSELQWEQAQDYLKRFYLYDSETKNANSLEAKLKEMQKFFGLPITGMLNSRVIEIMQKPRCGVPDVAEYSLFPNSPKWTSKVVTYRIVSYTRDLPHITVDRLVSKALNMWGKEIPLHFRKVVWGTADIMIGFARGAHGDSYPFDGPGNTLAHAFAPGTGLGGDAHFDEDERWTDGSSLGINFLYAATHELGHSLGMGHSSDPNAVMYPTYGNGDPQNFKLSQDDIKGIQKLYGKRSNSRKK
Macrophage metalloelastase, sequence (P39900 whole entry): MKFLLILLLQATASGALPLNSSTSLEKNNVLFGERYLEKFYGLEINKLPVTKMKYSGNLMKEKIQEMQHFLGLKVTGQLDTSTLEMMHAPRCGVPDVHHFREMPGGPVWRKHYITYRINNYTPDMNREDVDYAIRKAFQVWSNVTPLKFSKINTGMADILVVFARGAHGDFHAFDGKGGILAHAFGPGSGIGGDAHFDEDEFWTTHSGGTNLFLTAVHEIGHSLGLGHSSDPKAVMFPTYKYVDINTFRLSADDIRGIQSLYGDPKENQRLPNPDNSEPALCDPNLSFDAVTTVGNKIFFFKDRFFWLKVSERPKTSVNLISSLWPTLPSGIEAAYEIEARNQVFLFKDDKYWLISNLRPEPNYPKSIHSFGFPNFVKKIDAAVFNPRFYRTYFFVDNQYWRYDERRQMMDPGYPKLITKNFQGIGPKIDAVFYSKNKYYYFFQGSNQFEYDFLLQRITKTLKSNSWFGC
Matrix metalloproteinase-9, sequence (P14780 whole entry): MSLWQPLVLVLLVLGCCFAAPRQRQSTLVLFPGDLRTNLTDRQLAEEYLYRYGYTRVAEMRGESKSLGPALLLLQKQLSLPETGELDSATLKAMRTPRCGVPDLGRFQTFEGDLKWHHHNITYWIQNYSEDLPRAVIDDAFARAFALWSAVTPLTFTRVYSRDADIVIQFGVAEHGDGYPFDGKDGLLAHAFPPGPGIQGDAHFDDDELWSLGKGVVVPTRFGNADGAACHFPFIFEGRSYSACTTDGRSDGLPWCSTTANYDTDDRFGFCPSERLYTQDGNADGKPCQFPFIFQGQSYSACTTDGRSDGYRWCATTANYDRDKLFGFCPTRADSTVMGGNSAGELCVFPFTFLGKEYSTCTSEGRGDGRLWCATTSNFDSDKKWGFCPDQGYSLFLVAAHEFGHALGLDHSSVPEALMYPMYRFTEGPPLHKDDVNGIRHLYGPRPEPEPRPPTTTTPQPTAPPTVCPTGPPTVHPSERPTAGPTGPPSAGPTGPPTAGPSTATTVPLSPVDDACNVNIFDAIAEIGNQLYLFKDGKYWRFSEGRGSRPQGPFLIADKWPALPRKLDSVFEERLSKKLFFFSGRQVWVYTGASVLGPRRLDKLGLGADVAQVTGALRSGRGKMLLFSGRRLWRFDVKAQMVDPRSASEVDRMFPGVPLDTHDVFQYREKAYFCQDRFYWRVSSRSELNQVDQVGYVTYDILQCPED
Interstitial collagenase, sequence (P03956 whole entry): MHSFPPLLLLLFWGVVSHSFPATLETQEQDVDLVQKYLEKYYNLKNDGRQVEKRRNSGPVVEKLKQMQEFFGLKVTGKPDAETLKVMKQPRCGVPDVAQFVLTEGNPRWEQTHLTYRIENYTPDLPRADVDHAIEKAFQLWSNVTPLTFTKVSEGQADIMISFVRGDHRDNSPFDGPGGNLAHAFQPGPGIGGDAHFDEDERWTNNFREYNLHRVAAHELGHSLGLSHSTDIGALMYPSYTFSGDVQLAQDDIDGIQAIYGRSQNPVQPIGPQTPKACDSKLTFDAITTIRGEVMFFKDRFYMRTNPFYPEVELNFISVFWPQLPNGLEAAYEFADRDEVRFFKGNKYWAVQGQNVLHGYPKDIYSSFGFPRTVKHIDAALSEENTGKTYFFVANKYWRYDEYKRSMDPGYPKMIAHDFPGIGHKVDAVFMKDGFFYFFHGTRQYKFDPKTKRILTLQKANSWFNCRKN

AUC [1]: 10900 ng·h/mL | clearance [2]: 15 mL/min/kg | MIC (Pseudomonas aeruginosa [3]): > 64 µg/mL | half-life [4]: 0.7 h | Vd [5]: 0.4 L/kg | IC50 [6]: > 0.0925 µM | MIC (Staphylococcus aureus): > 64 µg/mL
SMILES: C[C@@](CCc1ccc(-c2ccc(O)cc2)cc1)(C(=O)O)S(C)(=O)=O

MIC50 (Pseudomonas aeruginosa [7]): 1 µg/mL (≈ 2.75 µM) | MIC90 (Pseudomonas aeruginosa [7]): 4 µg/mL (≈ 11 µM) | MIC90 (Klebsiella pneumoniae): 16 µg/mL (≈ 44 µM) | AUC [1]: 2500 ng·h/mL | clearance [2]: 65 mL/min/kg | MIC90 (Citrobacter freundii): 8 µg/mL (≈ 22 µM) | MIC90 (Pseudomonas aeruginosa [8]): 2 µg/mL (≈ 5.5 µM) | MIC (Pseudomonas aeruginosa [3]): 0.5 µg/mL (≈ 1.38 µM) | half-life [4]: 1.4 h | MIC90 (Acinetobacter baumannii): > 64 µg/mL | MIC90 (Klebsiella aerogenes): 16 µg/mL (≈ 44 µM) | Vd [5]: 2.6 L/kg | IC50 [6]: 0.00368 µM | MIC90 (Escherichia coli): 4 µg/mL (≈ 11 µM) | MIC (Staphylococcus aureus): > 64 µg/mL
SMILES: C[C@@](CCc1ccc(-c2ccc(O)cc2)cc1)(C(=O)NO)S(C)(=O)=O

SMILES: C[C@@](CCc1ccc(-c2ccccc2)cc1)(C(=O)NO)S(C)(=O)=O
Ki (Stromelysin-1): > 10 µM | MIC50 (Pseudomonas aeruginosa [7]): 0.5 µg/mL (≈ 1.44 µM) | MIC90 (Pseudomonas aeruginosa [7]): 2 µg/mL (≈ 5.76 µM) | MIC90 (Klebsiella pneumoniae): 16 µg/mL (≈ 46.1 µM) | AUC [1]: 2800 ng·h/mL | Ki (Collagenase 3): 7.73 µM | clearance [2]: 58 mL/min/kg | Ki (Neutrophil collagenase): > 10 µM | MIC90 (Citrobacter freundii): 8 µg/mL (≈ 23 µM) | MIC (Pseudomonas aeruginosa [9]): 0.008 µg/mL (≈ 0.023 µM) | Ki (Stromelysin-2): > 10 µM | Ki [10]: > 10 µM | MIC90 (Pseudomonas aeruginosa [8]): 4 µg/mL (≈ 11.5 µM) | Ki [11]: > 10 µM | Ki [12]: 1.35 µM | Ki [13]: > 10 µM | MIC (Pseudomonas aeruginosa [3]): 0.125 µg/mL (≈ 0.36 µM) | Ki [14]: > 10 µM | fraction unbound [15]: 0.02 | FC (Pseudomonas aeruginosa [16]): 6.2 | ED50 (Pseudomonas aeruginosa [17]): 63.4 mg/kg | Ki (Interstitial collagenase): > 10 µM | Ki [18]: > 10 µM | half-life [4]: 3.2 h | Ki [19]: > 10 µM | IC50 [20]: 0.34 µM | Ki [20]: 0.25 µM | Ki (Matrilysin): > 10 µM | ED50 (Pseudomonas aeruginosa [21]): 35 mg/kg | MIC90 (Acinetobacter baumannii): 32 µg/mL (≈ 92.1 µM) | inhibition [22]: > 50% | Ki [23]: > 10 µM | MIC90 (Klebsiella aerogenes): 4 µg/mL (≈ 11.5 µM) | IC50 [24]: 18 µM | Vd [5]: 2.7 L/kg | Ki [25]: > 10 µM | MIC90 (Escherichia coli): 2 µg/mL (≈ 5.76 µM) | MIC (Staphylococcus aureus): > 64 µg/mL | Ki [26]: > 10 µM

MIC90 (Klebsiella pneumoniae): 2 µg/mL (≈ 5.37 µM) | AUC [1]: 3100 ng·h/mL | clearance [2]: 53 mL/min/kg | MIC90 (Citrobacter freundii): 2 µg/mL (≈ 5.37 µM) | MIC90 (Pseudomonas aeruginosa [8]): 1 µg/mL (≈ 2.68 µM) | MIC (Pseudomonas aeruginosa [3]): 0.125 µg/mL (≈ 0.336 µM) | half-life [4]: 0.6 h | MIC90 (Acinetobacter baumannii): 16 µg/mL (≈ 43 µM) | MIC90 (Klebsiella aerogenes): 1 µg/mL (≈ 2.68 µM) | Vd [5]: 1.4 L/kg | IC50 [6]: 0.00064 µM | MIC90 (Escherichia coli): 0.5 µg/mL (≈ 1.34 µM) | MIC (Staphylococcus aureus): > 64 µg/mL
SMILES: C[C@@](CCc1ccc(-c2ccc(C#N)cc2)cc1)(C(=O)NO)S(C)(=O)=O
